Data set [1] concerns Towne strain of human cytomegalovirus (HCMV). Put plainly: Evaluation of antiviral activity: viral load of HCMV-infected HEL cells by the plaque method. The following applies: for EC50: Human betaherpesvirus 5, HEL, 144 h, read-out: EC50 value (anti-HCMV effect). It is filed as cell-based. The protocol: Diploid fibroblasts derived from human embryonic lung (Human embryonic lung fibroblasts; HEL cells) cultured in a 9.6 cm^2 petri dish until they became confluent using Dulbecco's Modified Eagle Medium (DMEM) to which 8% fetal calf serum (FCS) was added were prepared. The HEL cells were adsorbed and infected with a Towne strain of human cytomegalovirus (HCMV) with a multiplicity of infection (MOI) of 1, and cultured at 37° C. for 1 hour to obtain HCMV-infected cells.
The compound of the present invention or tricin which were serially diluted with dimethyl sulfoxide (compound concentration: 0.001, 0.01, 0.1, 1 and 10 μM) was added to the above HCMV-infected cells and cultured for 6 days. The number of infectious HCMV particles produced in the culture supernatant (viral load) was determined by the plaque method.
The plaque method was performed in the following manner. After the HEL cells cultured in a 24-well plate until they became confluent were adsorbed and infected with the culture supernatant which was 10-fold serially diluted at 37° C. for 1 hour, the 2% FCS and 0.4% agar-containing DMEM media were overlaid and then cultured. Several days (6 to 12 days) after the initiation of culture, the number of plaques appeared was counted under a microscope, and the viral load was measured.
A lower value of the relative value (the viral load against control) means a higher antiviral activity.
Using the compound obtained as mentioned above (the compound of the present invention), tricin and ganciclovir, the antiviral activity of each compound was evaluated in the same manner as in the above <Evaluation of Antiviral Activity—1>.

In data set [2] the test system is HEL cells. Put plainly: Evaluation of cytotoxicity to HEL cells by LDH release assay. In kind it is cell-based, human. The following applies: 37° C. for 5 days, concentrations of at least up to 10 μM, FIG. 3. How it is done:
Using the compound obtained as mentioned above (the compound of the present invention), tricin and flavopiridol, the cytotoxicity to the HEL cells was evaluated in accordance with the following procedure. Flavopiridol is a control compound in this Test Example, which is known to have toxicity although it functions as an antiviral agent.
The HEL cells were cultured at 37° C. for 5 days in the presence or absence of the above each compound. The proportion of viable cells after culture was calculated by the LDH release assay. The kit (trade name “Cyto Tox 96 (registered trademark) assay”, manufactured by Promega Corporation) was used for the assay. The test was repeated three times, and data were represented as mean±SD.
In general terms: LDH leaks from cells whose membrane has failed.

The record followed here is US20200079750A1, “COMPOUND OR SALT THEREOF, ANTIVIRAL AGENT, AND PHARMACEUTICAL COMPOSITION” (priority 2017, published 2020).

One may read the EC50 as the concentration giving half of the maximal effect.

As to `COc1cc(-c2cc(=O)c3ccc(F)cc3o2)cc(OC)c1O` [the compound of the present invention, 7-fluoro-4′-hydroxy-3′,5′-dimethoxyflavone], the “antiviral activity (viral load against control)” value in data set [1] (FIG. 1, compared with tricin, clearly observed at 0.001 to 1.000 μM) was “remarkably higher antiviral activity than tricin”; in data set [1] (FIG. 2, compared with tricin and ganciclovir, clearly observed at 0.1 to 1,000 nM), “remarkably higher antiviral activity than tricin and ganciclovir”. The concentration giving a half-maximal response (EC50) in data set [1] was 0.00013 µM. In addition, the “anti-HCMV effect higher than that of ganciclovir” value in data set [1] (from EC50 values, versus ganciclovir) is “about 200 fold”. The “anti-HCMV effect higher than that of tricin” value in data set [1] (from EC50 values, versus tricin) is reported as “about 400 fold”. For the same compound, the “cytotoxicity (proportion of viable cells)” value in data set [2] is reported as “no cytotoxicity”.

On to `COc1cc(-c2cc(=O)c3c(O)cc(O)cc3o2)cc(OC)c1O` [tricin, 4′,5,7-trihydroxy-3′,5′-dimethoxyflavone, reference compound], for which the EC50 in data set [1] was 0.0543 µM.

`Nc1nc(O)c2ncn(COC(CO)CO)c2n1` [ganciclovir, reference compound]: the EC50 in data set [1] was determined as 0.0275 µM.
